The test system of one assay is COLO 320DM. Kind of assay: Antiproliferative activity against human COLO320DM cells assessed inhibition of cell growth measured after 5 days by MTT assay. Conditions: 120 h. It counts as functional. (Formazan colour is commonly taken as a measure of viable cells.)
Assay [1] deals with Tankyrase 1/2 (Homo sapiens) (UniProt Q9H2K2+O95271). Description: Inhibition of TNKS/TNKS2 in human COLO320DM cells assessed as upregulation of AXIN2 expression at 0.1 uM measured after 16 hrs by Western blot analysis relative to G007-LK. It counts as cell-based. (In general: Immunoblotting shows a protein as a band on a membrane.)
Assay [2] deals with Alpha-2A adrenergic receptor (Homo sapiens) (UniProt P08913). Kind of assay: Displacement of [3H]rauwolscine from full-length recombinant human alpha2A receptor expressed in CHOK1 cells at 10 uM measured after 60 mins by scintillation counting method relative to control. It counts as cell-based.
Assay [3] has as its target Beta-1 adrenergic receptor (Homo sapiens) (UniProt P08588). Description: Displacement of [125I]cyanopindolol from full-length recombinant human beta1 receptor expressed in CHOK1 cells at 10 uM measured after 120 mins by scintillation counting method relative to control. It counts as cell-based.
The target of assay [4] is Glucocorticoid receptor (Homo sapiens) (UniProt P04150). Description: Displacement of [3H]dexamethasone from full-length recombinant human glucocorticoid receptor expressed in insect cells at 10 uM measured after 24 hrs by scintillation counting method relative to control.
For assay [5], the target named is Sodium-dependent noradrenaline transporter (Homo sapiens) (UniProt P23975). Description: Displacement of [125I]RTI-55 from full-length recombinant human NET receptor expressed in MDCK cells at 10 uM measured after 3 hrs by scintillation counting method relative to control. The assay is classed as cell-based.
The next assay is filed under the species Rattus norvegicus. Description: Displacement of [3H]batrachotoxinin from Wistar rat brain sodium channel site 2 at 10 uM after 60 mins by scintillation counting analysis relative to control. (In general: In a radioligand displacement assay an active substance lowers the binding of a labelled ligand.)
Assay [6] concerns the target 3',5'-cyclic-AMP phosphodiesterase 4D (Homo sapiens) (UniProt Q08499). Description: Inhibition of full-length recombinant human PDE4D2 expressed in Sf9 insect cells at 10 uM using FAM-cAMP as substrate preincubated for 15 mins followed by substrate addition and measured after 15 mins by spectrofluorimetric method relative to control.

The structures appear in SMILES notation.

Sequence of Alpha-2A adrenergic receptor (Homo sapiens) (P08913 whole entry): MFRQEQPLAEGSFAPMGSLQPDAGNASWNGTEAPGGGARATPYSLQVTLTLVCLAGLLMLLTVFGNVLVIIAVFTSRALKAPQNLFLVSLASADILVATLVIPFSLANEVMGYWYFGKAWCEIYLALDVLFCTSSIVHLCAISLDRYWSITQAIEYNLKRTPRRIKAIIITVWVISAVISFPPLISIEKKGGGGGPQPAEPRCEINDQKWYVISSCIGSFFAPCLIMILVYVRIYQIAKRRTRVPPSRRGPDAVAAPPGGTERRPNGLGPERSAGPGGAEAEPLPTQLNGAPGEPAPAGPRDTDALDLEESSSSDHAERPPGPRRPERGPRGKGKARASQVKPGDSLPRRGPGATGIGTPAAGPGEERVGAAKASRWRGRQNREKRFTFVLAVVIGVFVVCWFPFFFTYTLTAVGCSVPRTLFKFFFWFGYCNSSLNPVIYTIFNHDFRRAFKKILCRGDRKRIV
Sequence of Tankyrase 1/2 (Homo sapiens) (O95271 whole entry, looked up): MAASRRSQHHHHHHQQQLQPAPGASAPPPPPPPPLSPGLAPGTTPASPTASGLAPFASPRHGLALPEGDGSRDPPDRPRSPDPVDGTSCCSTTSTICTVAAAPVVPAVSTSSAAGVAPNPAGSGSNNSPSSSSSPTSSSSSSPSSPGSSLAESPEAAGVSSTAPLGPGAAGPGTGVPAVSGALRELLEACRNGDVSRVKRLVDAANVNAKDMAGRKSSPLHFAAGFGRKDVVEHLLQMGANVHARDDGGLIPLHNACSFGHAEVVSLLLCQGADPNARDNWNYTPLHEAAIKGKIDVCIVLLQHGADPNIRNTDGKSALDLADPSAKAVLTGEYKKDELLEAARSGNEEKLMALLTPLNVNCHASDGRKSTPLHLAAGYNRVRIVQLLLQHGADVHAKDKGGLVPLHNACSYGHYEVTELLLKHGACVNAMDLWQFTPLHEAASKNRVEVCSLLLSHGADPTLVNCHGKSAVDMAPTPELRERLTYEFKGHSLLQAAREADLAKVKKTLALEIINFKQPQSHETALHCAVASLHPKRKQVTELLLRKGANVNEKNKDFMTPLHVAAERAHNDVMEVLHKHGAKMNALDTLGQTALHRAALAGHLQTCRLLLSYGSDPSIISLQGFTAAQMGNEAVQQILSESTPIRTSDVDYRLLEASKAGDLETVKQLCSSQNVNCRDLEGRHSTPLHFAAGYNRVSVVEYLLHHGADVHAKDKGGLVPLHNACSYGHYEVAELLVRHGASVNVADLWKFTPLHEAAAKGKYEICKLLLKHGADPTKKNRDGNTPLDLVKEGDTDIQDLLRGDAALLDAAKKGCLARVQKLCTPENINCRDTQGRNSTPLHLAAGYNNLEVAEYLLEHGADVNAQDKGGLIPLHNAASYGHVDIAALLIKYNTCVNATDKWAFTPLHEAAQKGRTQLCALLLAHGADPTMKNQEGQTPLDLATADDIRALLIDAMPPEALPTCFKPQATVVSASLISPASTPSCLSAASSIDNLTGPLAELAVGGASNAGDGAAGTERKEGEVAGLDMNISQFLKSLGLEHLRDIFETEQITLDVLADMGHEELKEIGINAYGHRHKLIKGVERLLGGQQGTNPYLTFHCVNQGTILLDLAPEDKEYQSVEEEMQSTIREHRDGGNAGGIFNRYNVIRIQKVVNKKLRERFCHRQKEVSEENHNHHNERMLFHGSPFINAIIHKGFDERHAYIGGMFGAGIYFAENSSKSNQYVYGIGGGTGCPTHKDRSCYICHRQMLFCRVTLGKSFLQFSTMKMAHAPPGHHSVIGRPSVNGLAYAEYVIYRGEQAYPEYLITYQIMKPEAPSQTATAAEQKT
Sequence of Tankyrase 1/2 (Homo sapiens) (Q9H2K2 whole entry, looked up): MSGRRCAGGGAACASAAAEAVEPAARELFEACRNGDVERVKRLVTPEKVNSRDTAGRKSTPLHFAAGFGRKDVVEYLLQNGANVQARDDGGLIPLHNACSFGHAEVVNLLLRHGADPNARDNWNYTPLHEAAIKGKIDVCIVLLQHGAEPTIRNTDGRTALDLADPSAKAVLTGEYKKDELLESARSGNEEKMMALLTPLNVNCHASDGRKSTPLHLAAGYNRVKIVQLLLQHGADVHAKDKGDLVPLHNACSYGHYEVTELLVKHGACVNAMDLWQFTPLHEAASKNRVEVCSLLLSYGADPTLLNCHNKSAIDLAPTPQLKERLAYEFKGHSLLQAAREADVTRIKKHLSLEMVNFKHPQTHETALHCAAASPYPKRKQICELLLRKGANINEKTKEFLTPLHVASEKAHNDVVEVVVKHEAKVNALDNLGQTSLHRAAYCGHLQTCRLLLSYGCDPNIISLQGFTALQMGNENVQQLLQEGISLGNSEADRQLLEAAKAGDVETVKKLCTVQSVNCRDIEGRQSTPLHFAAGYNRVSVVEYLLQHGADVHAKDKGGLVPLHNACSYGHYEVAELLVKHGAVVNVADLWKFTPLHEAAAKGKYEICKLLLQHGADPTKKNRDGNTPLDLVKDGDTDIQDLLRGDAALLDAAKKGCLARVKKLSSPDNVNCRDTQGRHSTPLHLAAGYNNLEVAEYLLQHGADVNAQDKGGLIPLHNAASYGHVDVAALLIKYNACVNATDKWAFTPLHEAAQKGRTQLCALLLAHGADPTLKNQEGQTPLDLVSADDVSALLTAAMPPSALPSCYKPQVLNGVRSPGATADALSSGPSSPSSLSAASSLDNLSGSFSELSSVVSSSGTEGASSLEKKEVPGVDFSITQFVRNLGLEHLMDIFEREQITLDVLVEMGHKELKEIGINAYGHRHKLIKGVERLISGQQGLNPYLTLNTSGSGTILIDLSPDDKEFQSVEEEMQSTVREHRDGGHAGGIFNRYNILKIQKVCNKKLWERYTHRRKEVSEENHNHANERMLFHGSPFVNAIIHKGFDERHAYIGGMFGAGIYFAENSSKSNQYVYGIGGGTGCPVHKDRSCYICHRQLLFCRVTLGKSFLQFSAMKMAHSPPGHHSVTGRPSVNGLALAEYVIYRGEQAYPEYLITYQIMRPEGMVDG
Sequence of Beta-1 adrenergic receptor (Homo sapiens) (P08588 whole entry, looked up): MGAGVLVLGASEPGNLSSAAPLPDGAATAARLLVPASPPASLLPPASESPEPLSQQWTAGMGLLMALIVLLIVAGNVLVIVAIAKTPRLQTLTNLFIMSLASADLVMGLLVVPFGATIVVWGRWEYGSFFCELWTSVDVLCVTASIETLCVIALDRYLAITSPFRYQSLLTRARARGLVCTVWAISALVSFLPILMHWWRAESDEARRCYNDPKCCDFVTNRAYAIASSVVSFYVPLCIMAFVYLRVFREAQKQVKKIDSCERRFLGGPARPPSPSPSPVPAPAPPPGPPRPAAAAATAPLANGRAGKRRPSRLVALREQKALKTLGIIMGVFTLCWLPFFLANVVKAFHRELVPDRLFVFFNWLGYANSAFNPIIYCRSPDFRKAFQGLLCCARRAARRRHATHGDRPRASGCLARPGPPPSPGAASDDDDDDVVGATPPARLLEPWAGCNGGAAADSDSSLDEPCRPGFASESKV
Sequence of 3',5'-cyclic-AMP phosphodiesterase 4D (Homo sapiens) (Q08499 whole entry): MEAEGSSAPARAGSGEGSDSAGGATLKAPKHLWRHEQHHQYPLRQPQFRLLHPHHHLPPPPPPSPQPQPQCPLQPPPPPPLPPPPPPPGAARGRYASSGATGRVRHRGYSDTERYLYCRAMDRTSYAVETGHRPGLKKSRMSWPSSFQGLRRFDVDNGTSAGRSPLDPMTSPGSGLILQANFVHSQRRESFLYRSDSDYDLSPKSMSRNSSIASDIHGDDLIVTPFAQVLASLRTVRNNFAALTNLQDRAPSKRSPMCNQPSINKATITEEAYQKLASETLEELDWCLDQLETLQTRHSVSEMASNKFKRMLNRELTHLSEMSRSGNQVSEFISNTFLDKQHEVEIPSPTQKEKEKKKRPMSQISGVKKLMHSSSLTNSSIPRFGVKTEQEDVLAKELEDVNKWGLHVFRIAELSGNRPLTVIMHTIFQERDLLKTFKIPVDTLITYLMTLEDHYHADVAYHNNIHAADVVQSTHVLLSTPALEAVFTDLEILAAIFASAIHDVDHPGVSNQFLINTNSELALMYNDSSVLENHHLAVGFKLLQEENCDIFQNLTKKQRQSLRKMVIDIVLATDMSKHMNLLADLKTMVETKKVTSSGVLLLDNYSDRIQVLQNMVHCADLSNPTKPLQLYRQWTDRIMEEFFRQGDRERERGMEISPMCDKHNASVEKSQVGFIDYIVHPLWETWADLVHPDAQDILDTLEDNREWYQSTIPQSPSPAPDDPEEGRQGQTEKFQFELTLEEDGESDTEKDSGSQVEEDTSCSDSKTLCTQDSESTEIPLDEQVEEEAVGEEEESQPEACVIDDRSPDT
Sequence of Glucocorticoid receptor (Homo sapiens) (P04150 whole entry): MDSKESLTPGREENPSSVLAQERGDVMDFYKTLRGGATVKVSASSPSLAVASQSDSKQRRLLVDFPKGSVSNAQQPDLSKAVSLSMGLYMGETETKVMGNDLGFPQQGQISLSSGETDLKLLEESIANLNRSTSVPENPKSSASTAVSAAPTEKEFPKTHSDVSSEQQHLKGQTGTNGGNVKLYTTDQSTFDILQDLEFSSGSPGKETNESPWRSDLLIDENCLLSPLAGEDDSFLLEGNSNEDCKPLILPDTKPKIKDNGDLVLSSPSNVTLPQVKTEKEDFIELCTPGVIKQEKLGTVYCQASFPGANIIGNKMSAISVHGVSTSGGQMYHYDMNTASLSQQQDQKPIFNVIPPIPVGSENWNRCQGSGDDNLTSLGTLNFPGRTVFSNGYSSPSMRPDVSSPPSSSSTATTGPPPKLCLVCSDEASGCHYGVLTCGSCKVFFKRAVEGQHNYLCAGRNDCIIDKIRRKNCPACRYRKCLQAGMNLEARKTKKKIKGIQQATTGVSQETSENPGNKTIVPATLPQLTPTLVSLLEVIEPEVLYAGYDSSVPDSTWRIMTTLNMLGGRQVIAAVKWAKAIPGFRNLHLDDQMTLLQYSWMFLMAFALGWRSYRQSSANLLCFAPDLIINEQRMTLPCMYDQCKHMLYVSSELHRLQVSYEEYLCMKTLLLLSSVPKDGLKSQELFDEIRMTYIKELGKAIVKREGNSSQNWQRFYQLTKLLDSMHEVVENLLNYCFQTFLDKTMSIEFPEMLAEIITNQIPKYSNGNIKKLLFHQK

Broadly, the GI50 is the concentration that inhibits growth by half. A higher GI50 goes with less potent growth inhibition. In the assay on COLO 320DM, `COc1ccccc1N1CCN(c2nc3c(c(=O)[nH]2)CCCC3)CC1` showed a 50% growth inhibitory concentration (GI50) of 1820 nM.
The inhibition is the percentage by which the read-out fell short of the control. `O=c1[nH]c(N2CCC3(CC2)CN(CCO)c2cc(F)cc(F)c23)nc2c1CCCC2`: in assay [1], the fold change (FC) stood at 4.42. Moreover, the inhibition (in assay [2]; in assay [3]; in assay [4]; in assay [5]; in the assay listed under Rattus norvegicus; in assay [6]) was over 20% each time.
